{
  "source": "patent US4650788A",
  "about": "“Novel peptides having an immunostimulating action, processes for their preparation and their use” (Hoechst Aktiengesellschaft, priority 1983, dated 1987)",
  "key": {"[1]": {"test_system": "spleen cells of mice (B lymphocytes), in vitro immunization with sheep erythrocytes", "test": "plaque-forming cell test (PFC test)", "format": "cell-based", "details": "Dosage 100 ng/substance/1 ml of cell culture; mouse spleen cell culture, 5 days; untreated control 221 ± 30", "method": "[…]. The in vitro immunization is effected with 5×10^7 sheep erythrocytes/ml. The test cell cultures are incubated daily with the corresponding dose of the test substance.\nAfter a running time of 5 days, the cells are centrifuged off and washed with medium RPMI 1640 and the direct PFC test is carried out. For this, the cells are mixed with a 10% sheep erythrocyte suspension in an agarose solution and the mixture is poured onto a flat surface. In the layer of gel formed, the stimulated lymphocytes release antibodies during subsequent incubation, and these diffuse into the environment and attach themselves to the sheep erythrocytes therein. After addition of guinea pig complement, the red blood cells lyse. Light-colored round spots which can be seen with the naked eye form in the reddish-brown gel, i.e. the hemolysis areolas of the plaques. An antibody-producing cell is found in the center of such hemolysis areolas. The number of lymphoid cells which form specific immunoglobulins can consequently be equated with the numbers of plaques found."}, "lymphocytes (T cells)": {"test_system": "lymphocytes (T cells)", "test": "PHA stimulation test (lymphocyte transformation test)", "format": "cell-based", "details": "Dosage 100 ng/substance/1 ml of cell culture; 10 μg of PHA/1 ml, 72 hours; untreated control 1.00", "from_the_text": "In the PHA stimulation test (PHA=phytohemagglutinin) or the lymphocyte transformation test, conclusions as to the number of mature, i.e. stimulatable, lymphocytes are drawn not via investigation of the surface antigens but by the function test for ability to be stimulated by the plant lectin PHA. The lymphocytes (T cells) are stimulated to […] transformation by the lectin, in the same way as by bacterial or viral antigens. This leads to proliferation, either directly or by the release of lymphokins. The incorporation of the radiolabeled thymidine within a certain time is then a measure of the number of stimulated cells. Only the mature or immunologically potent T cells are stimulated. The influence of a substance on lymphocyte maturation can therefore be monitored with this test. However, the stimulation must be sub-optimum, since other sub-populations of lymphocytes are also stimulated at higher concentrations and the effect can no longer be observed. The peptides to be investigated have been added to the culture medium in various concentrations. They are present throughout the entire duration of the test (up to 72 hours)."}},
  "note": "Square brackets hold non-standard residues; d marks the D form. Peptide text beside a SMILES is read from it.",
  "data": [
    {"smiles": "CC(C)[C@H]1NC(=O)[C@H](CC(=O)O)NC(=O)[C@H](CCCCN)NC(=O)[C@H](CCCNC(=N)N)NC(=O)[C@H](Cc2c[nH]c3ccccc23)NC1=O", "note": "[cyclo-(Arg--Lys--Asp--D-Val--Trp)] (cyclo(D[dV]WRK))", "values": [
      {"measurement": "PFC/10^6 cells", "setting": "[1]", "result": "312 ± 58", "unit": "PFC/10^6 cells"}
    ]},
    {"smiles": "CC(C)[C@H]1NC(=O)[C@H](CC(=O)O)NC(=O)[C@H](CCCCN)NC(=O)[C@H](CCCNC(=N)N)NC(=O)[C@H](Cc2ccc(O)cc2)NC1=O", "note": "[cyclo-(Arg--Lys--Asp--D-Val--Tyr), cyclo-(Arg-Lys-Asp-D-Val-Tyr).2HOAc] (cyclo(D[dV]YRK))", "values": [
      {"measurement": "PFC/10^6 cells", "setting": "[1]", "result": "401 ± 64", "unit": "PFC/10^6 cells"},
      {"measurement": "PHA stimulation index", "setting": "lymphocytes (T cells)", "result": 1.69}
    ]},
    {"smiles": "CC(C)[C@H]1NC(=O)[C@H](CCC(=O)O)NC(=O)[C@H](CCCCN)NC(=O)[C@H](CCCNC(=N)N)NC(=O)[C@H](Cc2c[nH]c3ccccc23)NC1=O", "note": "[cyclo-(Arg--Lys--Glu--D-Val--Trp)] (cyclo(E[dV]WRK))", "values": [
      {"measurement": "PFC/10^6 cells", "setting": "[1]", "result": "369 ± 54", "unit": "PFC/10^6 cells"},
      {"measurement": "PHA stimulation index", "setting": "lymphocytes (T cells)", "result": 1.25}
    ]},
    {"smiles": "CC(C)[C@H]1NC(=O)[C@H](CCC(=O)O)NC(=O)[C@H](CCCCN)NC(=O)[C@H](CCCNC(=N)N)NC(=O)[C@H](Cc2ccc(O)cc2)NC1=O", "note": "[cyclo-(Arg--Lys--Glu--D-Val--Tyr), cyclo-(Arg-Lys-Glu-D-Val-Tyr).2 HOAc] (cyclo(E[dV]YRK))", "values": [
      {"measurement": "PFC/10^6 cells", "setting": "[1]", "result": "687 ± 73", "unit": "PFC/10^6 cells"},
      {"measurement": "PHA stimulation index", "setting": "lymphocytes (T cells)", "result": 1.92}
    ]},
    {"smiles": "CC(C)[C@@H]1NC(=O)[C@H](CCC(=O)O)NC(=O)[C@H](CCCCN)NC(=O)[C@H](CCCNC(=N)N)NC(=O)[C@@H](Cc2ccccc2)NC1=O", "note": "[cyclo-(Arg--Lys--Glu--Val--D-Phe)] (cyclo(EV[dF]RK))", "values": [
      {"measurement": "PFC/10^6 cells", "setting": "[1]", "result": "250 ± 31", "unit": "PFC/10^6 cells"}
    ]},
    {"smiles": "CC(C)[C@@H]1NC(=O)[C@H](CC(=O)O)NC(=O)[C@H](CCCNC(=N)N)NC(=O)[C@@H](CCCCN)NC(=O)[C@H](Cc2ccc(O)cc2)NC1=O", "note": "[cyclo-(D-Lys--Arg--Asp--Val--Tyr)] (cyclo(DVY[dK]R))", "values": [
      {"measurement": "PFC/10^6 cells", "setting": "[1]", "result": "341 ± 43", "unit": "PFC/10^6 cells"}
    ]},
    {"smiles": "CC(C)[C@@H]1NC(=O)[C@H](CCC(=O)O)NC(=O)[C@H](CCCNC(=N)N)NC(=O)[C@@H](CCCCN)NC(=O)[C@H](Cc2ccc(O)cc2)NC1=O", "note": "[cyclo-(D-Lys--Arg--Glu--Val--Tyr)] (cyclo(EVY[dK]R))", "values": [
      {"measurement": "PFC/10^6 cells", "setting": "[1]", "result": "317 ± 41", "unit": "PFC/10^6 cells"},
      {"measurement": "PHA stimulation index", "setting": "lymphocytes (T cells)", "result": 1.15}
    ]}
  ]
}
